Test results reported in US9493396B2, “Substituted naphthalene compounds as calcium sensing receptor modulators” (LUPIN ATLANTIS HOLDINGS SA, priority 2013, dated 2016).
pEC50: −log10 of the molar value. Structures can show the parent of a compound that is named as a salt.

Target: T1, Calcium sensing receptor (hCaSR) (Homo sapiens, UniProt P41180)
T1 construct: expressed in transfected cells; host or cells: HEK293 (stably transfected)
T1 sequence (P41180 20-1078): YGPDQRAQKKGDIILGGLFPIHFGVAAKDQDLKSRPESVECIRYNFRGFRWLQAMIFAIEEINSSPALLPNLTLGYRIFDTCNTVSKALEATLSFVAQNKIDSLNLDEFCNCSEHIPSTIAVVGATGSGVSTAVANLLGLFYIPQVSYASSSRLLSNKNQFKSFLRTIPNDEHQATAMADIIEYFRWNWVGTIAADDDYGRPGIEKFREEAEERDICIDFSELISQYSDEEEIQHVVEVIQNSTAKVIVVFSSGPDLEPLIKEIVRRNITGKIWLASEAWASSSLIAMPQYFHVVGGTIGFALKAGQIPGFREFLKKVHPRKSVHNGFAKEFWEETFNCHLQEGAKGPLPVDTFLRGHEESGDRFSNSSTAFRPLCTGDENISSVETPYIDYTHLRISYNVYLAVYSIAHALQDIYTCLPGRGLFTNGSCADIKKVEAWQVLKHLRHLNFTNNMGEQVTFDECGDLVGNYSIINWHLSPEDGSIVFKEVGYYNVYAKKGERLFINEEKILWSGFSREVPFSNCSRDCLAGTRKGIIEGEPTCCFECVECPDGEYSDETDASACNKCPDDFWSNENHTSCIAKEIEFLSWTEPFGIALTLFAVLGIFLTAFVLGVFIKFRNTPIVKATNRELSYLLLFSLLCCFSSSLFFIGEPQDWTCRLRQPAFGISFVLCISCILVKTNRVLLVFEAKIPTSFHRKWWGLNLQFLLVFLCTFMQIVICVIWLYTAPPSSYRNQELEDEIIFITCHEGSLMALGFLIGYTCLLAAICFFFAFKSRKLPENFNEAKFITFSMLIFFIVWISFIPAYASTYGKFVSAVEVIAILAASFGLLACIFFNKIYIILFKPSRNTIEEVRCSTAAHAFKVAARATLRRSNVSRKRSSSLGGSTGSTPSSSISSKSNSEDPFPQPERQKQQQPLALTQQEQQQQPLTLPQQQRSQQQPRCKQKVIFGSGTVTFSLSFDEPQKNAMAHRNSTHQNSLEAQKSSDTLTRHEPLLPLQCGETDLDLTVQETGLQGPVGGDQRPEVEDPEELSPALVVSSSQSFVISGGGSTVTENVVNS
Assay: In-vitro assay of calcimimetics through modulation of calcium sensing receptor (intracellular calcium increase, FLIPR)
Type: cell-based
Conditions: stably transfected HEK293 cells expressing hCaSR; Fluo4NW dye; 0.3 mM CaCl2; 8-point assay; read-out: EC50 in range
Experimental: In-Vitro Assay Method of Calcimimetics Through Modulation of Calcium Sensing Receptor (CaSR): The ability of the compounds to modulate Calcium sensing receptor is determined by measuring an increase in intracellular calcium [Ca^2+]i. Stably transfected HEK293 cells expressing hCaSR_pTriEx-3 hygro vector are developed. Cells are grown overnight on a 96-well plate to 80% confluency in Ham's F12 containing 20% FBS at 37° C., 5% CO2. Subsequently, cells are washed extensively with 20 mM HEPES buffer containing 126 mM […], 1 mM MgCl2 and 4 mM KCl to remove serum components that might interfere with the assay. Cells are loaded with calcium sensing Fluo4NW dye in HEPES base buffer containing 0.1% BSA and 1 mg/ml glucose for 30 minutes to measure changes in intracellular calcium. The activities of the compounds are measured in FLIPR using 0.3 mM CaCl2 in 20 mM HEPES base buffer. The effectiveness of the compound to modulate receptor activity is determined by calculating the EC50 responses for that compound in an 8-point assay and plotted using GraphPad Prism 5.

`COc1cccc([C@@H](C)NC(C)c2cc(-c3cc(F)cc(C(=O)O)c3)c3ccccc3c2)c1` (stereo partly drawn) [Example 118, 3-Fluoro-5-(3-(1-(((R)-1-(3-methoxyphenyl)ethyl)amino)ethyl)naphthalen-1-yl)benzoic acid hydrochloride] and `COc1cccc([C@@H](C)NC(C)c2cc(-c3ccc(F)c(C(=O)O)c3)c3ccccc3c2)c1` (stereo partly drawn) [Example 123, 2-Fluoro-5-(3-(1-(((R)-1-(3-methoxyphenyl)ethyl)amino)ethyl)naphthalen-1-yl)benzoic acid hydrochloride] cannot be ordered by pEC50: > 7.70 for the first, > 7.70 for the second.

First: CC(N[C@H](C)c1cccc(Cl)c1)c1cc(-c2cc(F)cc(CCC(=O)O)c2)c2ccccc2c1 (mixture of isomers) [Example 156, 3-(3-(3-(1-(((R)-1-(3-Chlorophenyl)ethyl)amino)ethyl)naphthalen-1-yl)-5-fluorophenyl)propanoic acid hydrochloride]
Second: COc1cccc([C@@H](C)NC(C)c2cc(-c3cc(F)cc(CCC(=O)O)c3)c3cc(F)ccc3c2)c1 (stereo partly drawn) [Example 147, 3-(3-Fluoro-5-(7-fluoro-3-(1-(((R)-1-(3-methoxyphenyl)ethyl)amino)ethyl)naphthalen-1-yl)phenyl)propanoic acid hydrochloride]
The pEC50 of the first is higher: 7.30 to 7.70 for the first, 6.40 to 7.30 for the second. The first is the more potent here.

`CCOc1cccc([C@@H](C)NCc2cc(-c3ccc(C)c(C(=O)O)c3)c3ccccc3c2)c1` [Example 91, hydrochloride] and `CCOc1cccc([C@@H](C)NCc2cc(-c3ccc(F)c(C(=O)O)c3)c3ccccc3c2)c1` [Example 98, hydrochloride] cannot be ordered by pEC50: > 7.70 for the first, > 7.70 for the second.

`C[C@@H](NCc1cc(-c2cccc(C(F)(F)F)c2)c2ccccc2c1)c1cccc2ccccc12` [Example 3, (R)-1-(Naphthalen-1-yl)-N-((4-(3-(trifluoromethyl)phenyl)naphthalen-2-yl)methyl)ethanamine hydrochloride] and `CC(N[C@H](C)c1cccc(Cl)c1)c1cc(-c2cccc(C(F)(F)F)c2)c2ccccc2c1` (stereo partly drawn) [Example 14, (1R)-1-(3-Chlorophenyl)-N-(1-(4-(3-(trifluoromethyl)phenyl)naphthalen-2-yl)ethyl)ethanamine hydrochloride] cannot be ordered by pEC50: > 7.70 for the first, > 7.70 for the second.

`Cc1ccc(-c2cc(CN[C@H](C)c3cccc(OCC(F)F)c3)cc3ccccc23)cc1C(=O)O` [Example 95, (R)-5-(3-(((1-(3-(2,2-Difluoroethoxy)phenyl)ethyl)amino)methyl)naphthalen-1-yl)-2-methylbenzoic acid hydrochloride] and `CCC(N[C@H](C)c1cccc(OC)c1)c1cc(-c2ccc(F)c(CCC(=O)O)c2)c2ccccc2c1` (stereo partly drawn) [Example 140, 3-(2-Fluoro-5-(3-(1-(((R)-1-(3-methoxyphenyl)ethyl)amino)propyl)naphthalen-1-yl)phenyl)propanoic acid hydrochloride] fall in the same range of pEC50: 6.40 to 7.30 for the first, 6.40 to 7.30 for the second.

First: COc1cc(F)cc(C(C)NC(C)c2cc(-c3ccc(C(F)(F)F)cc3)c3ccccc3c2)c1 (single isomer, unassigned) [Example 163b, 1-(3-Fluoro-5-methoxyphenyl)-N-(1-(4-(4-(trifluoromethyl)phenyl)naphthalen-2-yl)ethyl)ethanamine hydrochloride]
Second: COc1cccc([C@@H](C)NC(C)c2cc(-c3ccc(C(F)(F)F)cc3)c3ccccc3c2)c1 (stereo partly drawn) [Example 6, (R)-1-(3-Methoxyphenyl)-N-(1-(4-(4-(trifluoromethyl)phenyl)naphthalen-2-yl)ethyl)ethanamine hydrochloride]
The pEC50 of the first is lower: 7.30 to 7.70 for the first, > 7.70 for the second. The second is the more potent here.

`CC(N[C@H](C)c1cccc(Cl)c1)c1cc(-c2ccc(F)cc2)c2ccccc2c1` (stereo partly drawn) [Example 16, (1R)-1-(3-Chlorophenyl)-N-(1-(4-(4-fluorophenyl)naphthalen-2-yl)ethyl)ethanamine hydrochloride] and `CC(N[C@H](C)c1cccc(Cl)c1)c1cc(-c2ccc(OC(F)F)cc2)c2ccccc2c1` (stereo partly drawn) [Example 22, (1R)-1-(3-Chlorophenyl)-N-1-(4-(4-(difluoromethoxy)phenyl)naphthalen-2-yl)ethyl)ethanamine hydrochloride] cannot be ordered by pEC50: > 7.70 for the first, > 7.70 for the second.
